Target: T1, human 11β-HSD1 (Homo sapiens, UniProt P28845)
T1 construct: made in house
Assay: hHSD1 SPA: inhibition of 11β-HSD1 (cortisone to cortisol conversion, scintillation proximity assay)
Format: biochemical
Conditions: recombinant human 11β-HSD1, SPA
Protocol: Inhibition of 11β-HSD1 activity was examined by quantitative determination, by an SPA (scintillation proximity assay) system, of the suppressive action on the conversion from cortisone to cortisol using human 11β-HSD1 (hereinafter recombinant 11β-HSD1) expressed using a baculo-virus system as an enzyme source. For the reaction, a reagent was added to a 96-well plate (96-well Opti-plates™-96 (Packard)) to the following final concentration and a volume of 100 μl, and the reaction transpired at room temperature for 90 min. The reaction solution used was 0.1 μg/ml recombinant 11β-HSD1, 500 μM NADPH, 16 nM ^3H cortisone (Amersham Biosciences, […]) dissolved in 0.1% BSA (Sigma)-containing PBS and the test drug was 2 μl of a compound solution (dissolved in DMSO). […] After completion of the reaction, the plate was incubated overnight at room temperature and the radioactivity was measured by Topcount (Packard). […] The inhibition (%) of the test drug was calculated by ((value of control−value of test drug)/(value of control−value of positive control))×100(%). The IC50 value was analyzed using a computer-based curve fitting software.
Recombinant human, mouse and rat 11β-HSD1 were expressed in baculovirus expression system, isolated by affinity purification and used as the enzyme sources for cortisone to cortisol conversion in vitro. ^3H-Cortisone (Amersham Bioscience, […]. 49 Ci/mmol) was used as the substrate, and a monoclonal anti-cortisol antibody and the scintillation proximity assay (SPA) system were used to detect the product of the 11β-HSD1-catalyzed reaction, ^3H-cortisol. Reactions took place at room temperature for 90 min. in 96-well Opti-plates™-96 (Packard) in 100 μL volume with 2 μL test compounds or control in DMSO, 0.1 μg/mL 11β-HSD1 protein, 500 μM NADPH and 16 nM radioactive cortisone, in PBS buffer supplemented with 0.1% BSA (Sigma).
Plates were incubated at room temperature overnight before being read on a Topcount (Packard). The point of 50% inhibition of 11β-HSD1 enzyme activity (IC50) was determined by computer-based curve fitting.

T1 sequence (P28845 whole entry): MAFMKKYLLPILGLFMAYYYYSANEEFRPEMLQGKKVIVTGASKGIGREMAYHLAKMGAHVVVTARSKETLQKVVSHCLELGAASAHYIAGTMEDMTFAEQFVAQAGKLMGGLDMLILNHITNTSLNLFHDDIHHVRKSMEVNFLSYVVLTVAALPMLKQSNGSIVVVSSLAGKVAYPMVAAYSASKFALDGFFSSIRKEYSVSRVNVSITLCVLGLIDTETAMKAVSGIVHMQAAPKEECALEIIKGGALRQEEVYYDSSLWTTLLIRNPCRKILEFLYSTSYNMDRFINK

IC50 [µM]	SMILES
> 0.1	CN(C)C(=O)c1ccc(C(=O)N(C2CC2)[C@H]2CC[C@](CCO)(c3ccccn3)CC2)cc1 [Compound 27]
0.0209	O=C(c1ccccc1F)N(C1CC1)[C@H]1CC[C@](CCO)(c2ccccn2)CC1 [Compound 14]
0.0521	CC(C(=O)N(C1CC1)[C@H]1CC[C@H](CCO)CC1)c1ccccc1 (stereo partly drawn) [Compound 32, N-Cyclopropyl-N-(trans-4-(2-hydroxyethyl)cyclohexyl)-2-phenylpropionamide]
0.0614	COc1cccc(C(=O)N(C2CC2)[C@H]2CC[C@](CCO)(c3ccccn3)CC2)c1 [Compound 23]
0.0121	CC(C)(C)c1ccc(C(=O)N(C2CC2)[C@H]2CC[C@](CCO)(c3ccccn3)CC2)cc1 [Compound 29]
0.0594	COc1ccc(C(=O)N(C2CC2)[C@H]2CC[C@](CCO)(c3ccccn3)CC2)cc1 [Compound 24]
0.00635	COc1ccc(C(=O)N(C2CC2)[C@H]2CC[C@H](CCO)CC2)cc1 [Compound 9]
0.0308	O=C(c1cccc(F)c1F)N(C1CC1)[C@H]1CC[C@H](CCO)CC1 [Compound 7, N-Cyclopropyl-2,3-difluoro-N-(trans-4-(2-hydroxyethyl)cyclohexyl)benzamide]
0.023	O=C(c1ccc(Cl)cc1)N(C1CC1)[C@H]1CC[C@](CCO)(c2ccccn2)CC1 [Compound 19]
0.0183	O=C(c1ccccc1)N(C1CC1)[C@H]1CC[C@H](CCO)CC1 [Compound 13, N-Cyclopropyl-N-(trans-4-(2-hydroxyethyl)cyclohexyl)benzamide]
0.0217	COc1ccc(C(=O)N(C2CC2)[C@H]2CC[C@](CCO)(c3ccccn3)CC2)c(F)c1 [Compound 25]
0.0114	Cc1ccc(C(=O)N(C2CC2)[C@H]2CC[C@](CCO)(c3ccccn3)CC2)cc1 [Compound 26]
0.0543	O=C(c1ccc(C(F)(F)F)cc1)N(C1CC1)[C@H]1CC[C@](CCO)(c2ccccn2)CC1 [Compound 31]
0.0219	O=C(c1ccc(F)cc1)N(C1CC1)[C@H]1CC[C@H](CCO)CC1 [Compound 5, N-Cyclopropyl-4-fluoro-N-(trans-4-(2-hydroxyethyl)cyclohexyl)benzamide]
0.00194	Cc1ccc(C(=O)N(C2CC2)[C@H]2CC[C@H](CCO)CC2)c(F)c1 [Compound 1, N-cyclopropyl-2-fluoro-N-(trans-4-(2-hydroxyethyl)cyclohexyl)-4-methylbenzamide]
0.00094	CC(C)c1ccc(C(=O)N(C2CC2)[C@H]2CC[C@H](CCO)CC2)cc1 [Compound 11, N-Cyclopropyl-4-isopropyl-N-(trans-4-(2-hydroxyethyl)cyclohexyl)benzamide]
0.0405	O=C(c1cccc(F)c1)N(C1CC1)[C@H]1CC[C@H](CCO)CC1 [Compound 4, N-Cyclopropyl-3-fluoro-N-(trans-4-(2-hydroxyethyl)cyclohexyl)benzamide]
0.0452	O=C(c1cccc(F)c1)N(C1CC1)[C@H]1CC[C@](CCO)(c2ccccn2)CC1 [Compound 15]
0.0072	CC(C)c1ccc(C(=O)N(C2CC2)[C@H]2CC[C@](CCO)(c3ccccn3)CC2)cc1 [Compound 28]
0.0069	O=C(c1ccc(Cl)cc1)N(C1CC1)[C@H]1CC[C@H](CCO)CC1 [Compound 6, 4-Chloro-N-cyclopropyl-N-(trans-4-(2-hydroxyethyl)cyclohexyl)benzamide]
0.00106	O=C(c1ccc(Br)cc1F)N(C1CC1)[C@H]1CC[C@H](CCO)CC1 [Compound 8, 4-Bromo-N-cyclopropyl-2-fluoro-N-(trans-4-(2-hydroxyethyl)cyclohexyl)benzamide]
> 0.1	O=C(c1ccc(F)cc1)N(C1CC1)[C@H]1CC[C@](CCO)(c2ccccn2)CC1 [Compound 16]
0.00689	Cc1ccc(C(=O)N(C2CC2)[C@H]2CC[C@H](CC(C)(C)O)CC2)c(F)c1 [Compound 2, N-cyclopropyl-2-fluoro-N-(trans-4-(2-hydroxy-2-methylpropyl)cyclohexyl)-4-methylbenzamide]
0.00395	O=C(c1ccccc1F)N(C1CC1)[C@H]1CC[C@H](CCO)CC1 [Compound 3, N-Cyclopropyl-2-fluoro-N-(trans-4-(2-hydroxyethyl)cyclohexyl)benzamide]

Source: patent US7932421B2, “N-cyclohexyl benzamides and benzeneacetamides as inhibitors of 11-beta-hydroxysteroid dehydrogenases” (Amgen Inc., priority 2006, dated 2011)
